Data from patent US20240002474A1, “Systems and Methods for Diagnostic Assessment and Treatment of Insulin Resistance and Hyperglycemia” (The Board of Trustees of the Leland Stanford Junior …, priority 2020, published 2024).

How the values were obtained:
[1] = system: HepaRG hepatocytes; assay: Mitochondrial insulin stimulation test (MIST), oxygen consumption rate in HepaRG hepatocytes; type: cell-based, human; conditions: for insulin-dependent mitochondrial respiration / maximal respiration (FCCP uncoupling): HepaRG, 10-minute pretreatment with peptide (10 μM) before exposure to IR or T2D patient serum, vs cells without peptide
Protocol: Mitochondrial Insulin Stimulation Test. HepaRG hepatocytes or skeletal muscle cells were plated at 40,000 cells/well in Seahorse XF96 plate (Agilent) the day before the assay. Cells were serum starved by culturing in respective media without serum or growth factor supplements. Individual serum was diluted 1:100 in supplement-free media and cells were incubated with media containing individual serum for 4 hours. Cells were washed three times with PBS and incubated with seahorse assay media (buffer free RPMI with mM glucose, mM sodium pyruvate and mM glutamine) for 1 hour in a CO2 free incubation at 37° C. Seahorse measurements were performed every 5 minutes with mixing. Mitochondrial function was perturbed by administration of insulin (100 nM), oligomycin (1 μM), FCCP (2 μM), and rotenone and antimycin A (1 μM). Data was processed by normalizing basal respiration to zero and the maximal respiration following FCCP administration of the positive control (no serum exposure with insulin stimulation) to 1.
IgG purification and fragmentation. IgG purified from serum was diluted (1:100) in Protein G binding buffer (Thermo) and incubated with Protein G Agarose Beads (Thermo) for 4 hours on an orbital shaker at 4° C. Beads were washed three times with Protein G binding buffer and IgG was eluted by incubated beads in Protein G elution buffer, pH 2.7 for 5 minutes, centrifuged and the supernatant was quenched with Tris-HCl buffer, pH 9.0. Purified IgG was buffer exchanged to using 15 kDa spin column to PBS. Purification was validated by immunoblotting. Fab fragments were generated by papain cleavage using Pierce […] (Thermo Scientific) according to manufacturer's protocol.
Peptide Synthesis. SYN746 (QRFCTGHFGGLYPCHGP; SEQ ID NO: 1) and HIV TAT conjugated FcRn C-terminal tail-dominant negative ([…]; SEQ ID Nos: 2 and 3) were synthesized using Fmoc solid phase peptide synthesis and purified using preparative HPLC using aC18 reverse-phase column and characterized by liquid-chromatography mass spectrometry by University of Minnesota Peptide Synthesis Core.

[2] = target: FcRn (Homo sapiens, UniProt P55899); conditions: previously published peptide; similar to IgG; cited from earlier work
Chain of FcRn (P55899 24-297 limits assumed): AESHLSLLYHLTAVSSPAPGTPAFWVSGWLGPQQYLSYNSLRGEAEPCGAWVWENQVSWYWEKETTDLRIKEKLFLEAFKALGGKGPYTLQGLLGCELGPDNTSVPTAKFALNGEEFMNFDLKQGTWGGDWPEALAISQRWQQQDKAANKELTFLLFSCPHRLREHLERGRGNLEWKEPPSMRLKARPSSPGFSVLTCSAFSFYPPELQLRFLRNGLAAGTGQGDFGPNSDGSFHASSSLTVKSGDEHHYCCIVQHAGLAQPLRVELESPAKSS
Chain of FcRn (P61769 21-119 partner): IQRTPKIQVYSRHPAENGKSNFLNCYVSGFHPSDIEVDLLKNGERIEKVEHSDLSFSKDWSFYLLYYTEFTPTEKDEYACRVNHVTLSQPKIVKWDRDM

Sequence | mitochondrial function or insulin stimulation in control cells ([1]; HepaRG control cells, 10-minute pretreatment) | insulin-dependent mitochondrial respiration [1] | maximal respiration (FCCP uncoupling) [1] | binding to FcRn [2]
QRFCTGHFGGLYPCHGP (listed as Homo sapiens) [SYN746] | did not affect | dramatic rescue | dramatic rescue | pH-sensitive binding
YGRKKRRQRRRGAPWISLRGDDTGVLLPTP [dominant negative] | – | significant rescue | significant rescue | –
